Reference: paper PMC5829251, “NAD^+ analog reveals PARP-1 substrate-blocking mechanism and allosteric communication from catalytic center to DNA-binding domains” (Nature Communications, 2018)

Assays:
full-length PARP-1 WT [1] = target: T1, full-length PARP-1 WT (Homo sapiens, UniProt P09874); assay: One-dimensional 1H NMR monitoring BAD protons; format: binding
T1 construct: Full-length PARP-1 WT (residues 1–1014) was cloned in pET28 vector; made in house; host or cells: E. coli
Experimental: Full-length PARP-1 WT and a dumbbell DNA containing a central 1-nucleotide gap (5′-[…]-3′)[7], were dialyzed against a modified PBS buffer (222 mM NaCl, 2.7 mM KCl, 200 μM DTT, 10 mM sodium phosphate, pH 7.4). An aliquot of the dialysis PBS buffer was then lyophylized and resuspended in deuterated water (D2O). The NMR samples were prepared by diluting the protein (40 μM final), DNA (40 μM final), and BAD (20 μM final) in the deuterated buffer such that all samples contained 85% D2O final. The samples were incubated 30 min at RT prior to collecting the NMR spectra. ^1H (700.303 MHz) NMR spectra were acquired with a Bruker Avance II 700 spectrometer equipped with a 16.4 T narrowbore magnet and a double-resonance (^1 H/^13 C) cryoprobe. All samples were run using 3 mm NMR tubes (180 µL). 1D experiments were acquired with excitation sculpting to suppress residual water signal. The use of D2O as the primary solvent (85%) removed the signals from amide hydrogens in the region of interest (7–9 ppm), however a low-power T1p filter (70 ms) was necessary after the 90-degree excitation pulse to reduce signals from the non-exchangeable hydrogens arising from the large, slowly tumbling protein and DNA.

PARP-2 = target: T2, PARP-2 (Homo sapiens, UniProt Q9UGN5); assay: DSF, full-length PARP-2 with or without DNA; format: binding; settings: for TM: Figure 3c, BAD 1250 μM, in °C (unit assumed)
T2 construct: PARP-2 (isoform 2, residues 1–570) was cloned in pET28 vector; made in house
Experimental: (§1) DSF experiments were performed as described, [13] using 5 µM protein, 2.5 µM DNA when indicated and various concentrations of compound (BAD, carba-NAD^+, benzamide, and ADP-ribose) as indicated in Fig. 1 and Fig. 3. Experiments were performed on a Roche LightCycler 480 RT-PCR. Reactions including DNA were performed with a 26- or 28-base pair (bp) unphosphorylated oligonucleotide for PARP-1, a 28-bp 5´-phosphorylated (5´P) oligonucleotide for PARP-2, and a 47-bp oligonucleotide including a central 5´P nick for PARP-3^13 in the following buffer: 25 mM Hepes pH 8.0, 150 mM NaCl, 1 mM EDTA, and 0.1 mM TCEP. Reactions with PARP-3 were conducted at lower ionic strength to allow binding to DNA as described (25 mM Hepes pH 8.0, 50 mM NaCl, 1 mM EDTA and 0.1 mM TCEP)[13]. ΔTM values were calculated by subtracting the TM determined for the protein in the absence of compound from the TM determined in the presence of compound. Experiments were performed in triplicate and a Boltzmann sigmoid was fit to the data to determine the TM values (KaleidaGraph).

PARP-1 D45A = target: T3, PARP-1 D45A (Homo sapiens, UniProt P09874, D45A); assay: DSF, full-length PARP-1 D45A with or without DNA; format: binding; settings: for TM: Figure 3b, BAD 1250 μM, in °C (unit assumed)
T3 construct: Full-length PARP-1 WT (residues 1–1014) was cloned in pET28 vector and site-directed mutagenesis was performed; made in house; host or cells: E. coli
Experimental: as §1

PARP-1 W246A = target: T4, PARP-1 W246A (Homo sapiens, UniProt P09874, W246A); assay: DSF, full-length PARP-1 W246A with or without DNA; format: binding; settings: for TM: Figure 3b, BAD 1250 μM, in °C (unit assumed)
T4 construct: Full-length PARP-1 WT (residues 1–1014) was cloned in pET28 vector and site-directed mutagenesis was performed; made in house; host or cells: E. coli
Experimental: as §1

full-length PARP-1 WT [2] = target: T1, full-length PARP-1 WT; assay: DSF, full-length PARP-1 WT with or without DNA; format: binding; settings: BAD 1250 μM; for TM: in °C (unit assumed)
Experimental: as §1

Tankyrase 1 CAT = target: T5, Tankyrase 1 CAT (Homo sapiens, UniProt O95271); assay: DSF, Tankyrase 1 CAT; format: binding
T5 construct: Tankyrase 1 CAT (residues 1093–1327) was cloned in pET24; made in house
T5 sequence (O95271 1093-1327): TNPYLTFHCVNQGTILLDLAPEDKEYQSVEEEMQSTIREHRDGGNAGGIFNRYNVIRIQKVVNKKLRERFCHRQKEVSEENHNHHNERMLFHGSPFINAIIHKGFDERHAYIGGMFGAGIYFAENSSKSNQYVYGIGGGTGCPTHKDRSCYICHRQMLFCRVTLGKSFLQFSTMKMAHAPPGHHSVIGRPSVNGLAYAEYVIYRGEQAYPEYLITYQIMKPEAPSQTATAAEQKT
Experimental: as §1

PARP-1 = target: T6, PARP-1 (Homo sapiens, UniProt P09874); assay: SDS-PAGE PARP-1 activity assay (DNA-dependent automodification); format: biochemical; settings: 1 μM DNA, 1 μM protein, 50 μM NAD+; concentration series
T6 construct: Full-length PARP-1 WT (residues 1–1014) was cloned in pET28 vector; made in house; host or cells: E. coli
Experimental: The SDS-PAGE activity assay was performed as described[28] using 1 µM protein, 1 μM DNA (18 bp oligonucleotide), 50 µM NAD^+, and various concentrations of BAD and carba-NAD^+ as indicated. Reactions were incubated for 5 min before quenching with SDS-PAGE loading buffer.

T3 sequence (P09874 whole entry D45A, the tested form may be a part): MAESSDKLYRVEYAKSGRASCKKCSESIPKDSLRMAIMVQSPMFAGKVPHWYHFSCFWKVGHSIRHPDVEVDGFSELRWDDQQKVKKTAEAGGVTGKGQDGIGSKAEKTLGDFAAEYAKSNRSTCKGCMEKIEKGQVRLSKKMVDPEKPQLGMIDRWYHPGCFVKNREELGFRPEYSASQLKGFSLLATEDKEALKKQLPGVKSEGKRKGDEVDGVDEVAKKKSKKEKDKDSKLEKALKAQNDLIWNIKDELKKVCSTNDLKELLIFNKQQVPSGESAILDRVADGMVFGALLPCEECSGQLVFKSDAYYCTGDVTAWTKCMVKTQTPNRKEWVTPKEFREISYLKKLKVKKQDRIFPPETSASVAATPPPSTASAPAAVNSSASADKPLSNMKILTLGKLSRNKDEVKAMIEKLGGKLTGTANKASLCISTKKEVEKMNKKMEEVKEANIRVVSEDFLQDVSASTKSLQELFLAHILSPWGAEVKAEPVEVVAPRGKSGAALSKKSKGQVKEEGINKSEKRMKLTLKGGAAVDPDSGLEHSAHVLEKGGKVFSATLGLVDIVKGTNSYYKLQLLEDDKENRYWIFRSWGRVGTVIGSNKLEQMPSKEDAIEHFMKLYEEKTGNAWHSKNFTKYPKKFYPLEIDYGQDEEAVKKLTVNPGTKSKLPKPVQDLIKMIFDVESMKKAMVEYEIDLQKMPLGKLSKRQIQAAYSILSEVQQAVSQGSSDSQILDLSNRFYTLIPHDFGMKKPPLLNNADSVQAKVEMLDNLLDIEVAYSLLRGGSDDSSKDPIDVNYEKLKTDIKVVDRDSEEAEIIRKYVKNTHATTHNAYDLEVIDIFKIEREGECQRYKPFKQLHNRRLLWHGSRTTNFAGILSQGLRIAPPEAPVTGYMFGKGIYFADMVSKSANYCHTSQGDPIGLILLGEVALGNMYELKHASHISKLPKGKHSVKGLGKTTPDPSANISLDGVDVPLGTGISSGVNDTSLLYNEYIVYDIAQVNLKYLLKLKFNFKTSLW
T1 sequence (P09874 whole entry, the tested form may be a part): as the sequence (P09874 whole entry D45A, the tested form may be a part) above, with A45D counted along it
T2 sequence (Q9UGN5 1-570 isoform Q9UGN5-2): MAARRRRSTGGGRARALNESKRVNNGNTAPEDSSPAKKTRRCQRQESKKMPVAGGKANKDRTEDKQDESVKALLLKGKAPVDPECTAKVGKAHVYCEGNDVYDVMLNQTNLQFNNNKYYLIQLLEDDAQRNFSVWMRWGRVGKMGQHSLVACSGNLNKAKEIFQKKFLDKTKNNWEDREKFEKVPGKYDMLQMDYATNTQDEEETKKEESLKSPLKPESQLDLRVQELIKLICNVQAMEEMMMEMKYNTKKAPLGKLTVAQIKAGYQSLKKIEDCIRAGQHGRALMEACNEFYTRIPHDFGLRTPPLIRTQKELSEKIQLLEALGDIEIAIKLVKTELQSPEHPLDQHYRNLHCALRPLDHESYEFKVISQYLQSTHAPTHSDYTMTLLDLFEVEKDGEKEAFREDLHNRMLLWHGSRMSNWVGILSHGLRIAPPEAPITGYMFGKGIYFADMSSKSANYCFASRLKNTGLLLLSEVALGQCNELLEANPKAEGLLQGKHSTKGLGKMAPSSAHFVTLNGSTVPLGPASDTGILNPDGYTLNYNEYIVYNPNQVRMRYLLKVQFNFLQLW
T4 sequence (P09874 whole entry W246A, the tested form may be a part): as the sequence (P09874 whole entry D45A, the tested form may be a part) above, with A45D, W246A counted along it
T6 sequence (P09874 whole entry, the tested form may be a part): as the sequence (P09874 whole entry D45A, the tested form may be a part) above, with A45D counted along it

Which results are given for `NC(=O)c1cccc(C2OC(COP(=O)(O)OP(=O)(O)OCC3OC(n4cnc5c(N)ncnc54)C(O)C3O)C(O)C2O)c1` (stereo not drawn) [BAD, benzamide adenine dinucleotide]?
level of signal reduction of BAD spectrum peaks (full-length PARP-1 WT [1]; BAD 20 μM with PARP-1 40 μM and DNA 40 μM (dumbbell DNA, central 1 nt-gap)): ~ 95%; BAD spectrum compared with BAD alone (full-length PARP-1 WT [1]; BAD 20 μM with PARP-1 40 µM, no DNA): essentially identical spectrum; TM (PARP-2; PARP-2, no DNA, TM without BAD 47.71): 47.47; TM (PARP-2; PARP-2 with DNA (2.5 μM, 28-bp duplex 5'P), TM without BAD 45.44): 47.28; evidence of BAD binding in the DSF assay (PARP-2; PARP-2, with or without DNA bearing 5'P): only showed evidence of BAD binding in the presence of activating DNA; TM shift in the presence of BAD and DNA (PARP-1 D45A; D45A (Zn1–WGR interface mutation), relative to WT): substantial reduction in TM shift; TM (PARP-1 D45A; D45A with DNA (2.5 μM), TM without BAD 46.77): 46.61; TM (PARP-1 D45A; D45A, no DNA, TM without BAD 46.20): 46.68; TM (PARP-1 W246A; W246A with DNA (2.5 μM), TM without BAD 47.45): 47.41; TM (PARP-1 W246A; W246A, no DNA, TM without BAD 47.24): 47.23; TM shift in the presence of BAD and DNA (PARP-1 W246A; W246A (Zn1–Zn3 interface mutation), relative to WT): substantial reduction in TM shift; increase in the TM of full-length PARP-1 owing to BAD (full-length PARP-1 WT [2]; with or without DNA (2.5 μM)): observed only with DNA present; TM (full-length PARP-1 WT [2]; Figure 3a, WT with DNA (2.5 μM, 26-bp duplex), TM without BAD 44.35): 47.65; TM (full-length PARP-1 WT [2]; Figure 3a, WT, no DNA, TM without BAD 48.17): 48.19; TM (full-length PARP-1 WT [2]; Figure 3b, WT with DNA (2.5 μM, 26-bp duplex), TM without BAD 42.85): 45.99; TM (full-length PARP-1 WT [2]; Figure 3b, WT, no DNA, TM without BAD 47.41): 47.09; TM (full-length PARP-1 WT [2]; Figure 3c, PARP-1, no DNA, TM without BAD 47.93): 48.15; TM (full-length PARP-1 WT [2]; Figure 3c, PARP-1 with DNA (2.5 μM, 28-bp duplex), TM without BAD 44.45): 48.03; binding to BAD based on the DSF analysis (Tankyrase 1 CAT; CAT of tankyrase 1 (no HD)): capable of binding; TM (Tankyrase 1 CAT; Figure 3d, TNK CAT 5 μM, BAD 4 mM, TM without BAD 53.71, in °C (unit assumed)): 57.42; concentration at which inhibition of DNA-dependent PARP-1 automodification activity starts (PARP-1): 50 µM
